The text below walks through data of US7049340B1, “Neuroprotective and retinoprotective ophthalmologic drugs” (priority 1999, dated 2006).

This assay has as its system patients with age-related macular degeneration. As to the kind of experiment: Clinical treatment of age-related macular degeneration (ARMD): visual acuity. Format: in vivo, human. The method, then:
The invention will now be illustrated by the following description of clinical examples which, of course, are not limiting in nature. In these examples the active principle, in particular ramipril, was administered continuously in an oral form, in an amount of 1.25 mg per day.
By way of example, visual acuity changed respectively from 0.16 to 0.3; 0.2 to 0.5; from 0.05 to 0.2 (right eye) and 0.05 to 0.15 (left eye); from 0.2 to 0.4 (right eye) and from 0.5 to 0.8 (left eye); from 0.6 to 1; from 0.4 to 0.6 (right eye) and from 0.2 to 0.5 (left eye).

In the case of `CCOC(=O)[C@H](CCc1ccccc1)N[C@@H](C)C(=O)N1[C@H](C(=O)O)C[C@@H]2CCC[C@@H]21` [ramipril], the “visual acuity after treatment” value was 0.3 (case 1, before 0.16); 0.5 (case 2, before 0.2); 0.15 (case 3, left eye, before 0.05); 0.2 (case 3, right eye, before 0.05); 0.8 (case 4, left eye, before 0.5); 0.4 (case 4, right eye, before 0.2). The “visual acuity after treatment” value runs as follows: (case 5, before 0.6) 1; (case 6, left eye, before 0.2) 0.5; (case 6, right eye, before 0.4) 0.6. Also, where the note is “majority of patients, with or without sub-retinal neovessels”, the visual acuity result is “improved visual acuity”.
